{"source": "patent US6451787B1", "about": "“Remedies for ocular diseases” (Cephalon, Inc., priority 1998, dated 2002)", "key": {"[1]": {"tested_on": "retinal gangliocyte in a retinal ischemia—reperfusion model", "test": "Effects on the retina subjected to the ischemia—reperfusion treatment", "assay_type": "in vivo, rat", "text": "1. Effects on the Retina Subjected to the Ischemia—Reperfusion Treatment\nIt has been reported that brain-derived neurotrophic factor (it is referred to as BDNF hereinafter) which is a neurotrophic factor has a protective effect against gangliocytic death caused by retinal ischemia (Invest. Ophthalmol. Vis. Sci. 35, 907-915 (1994)).\nThus, according to the method described in this reference, the effects of the compounds on retinal gangliocyte in a retinal ischemia—reperfusion model were studied.\nUnder anesthesia with a mixture of Ketalar and Celactal, the conjunctiva of a male Spraugue—Dawley rat (300-450 g) was dissected to expose the optic nerve and then the retina was subjected to an ischemic state by ligating the optic nerve with a suture. Sixty minutes after the ischemia, the suture was taken out to reperfuse the retina with the blood by allowing the circulation. Seven days after the reperfusion, the eye bulb was enucleated and then immobilized with paraformaldehyde, and after embedding it in paraffin, the transverse paraffin sections of the eye bulb with 3 μm of the thickness were prepared by slicing the eye bulb beginning from the point of exposure of the optic nerve with 60 μm of each interval. These sections were stained with hematoxylin—eosin and photographs were taken for the section in which the retinal part at the distance of approximately 1 mm from the optic disc to either direction, left or right, is included to measure the number of the cells contained in the layer of gangliocyte.\nHere, the compound was dissolved into polyethylene glycol 660 hydroxystearate and injected in the volume of 1 μl into the hyaloid body two day before the creation of the ischemic state."}, "[2]": {"tested_on": "retinal disturbance induced by injecting kainic acid into the hyaloid body", "test": "Effects on the retina from the eye treated with kainic acid", "assay_type": "in vivo, rat", "details": "for Thickness of the inner plexiform layer: injected two days before, at the same time as and one day after kainic acid, Normal 47.5, Control 20.8; for Thickness of the inner plexiform layer / Number of the cells in the layer of gangliocyte: 7 days after; for Number of the cells in the layer of gangliocyte: Normal 64.2, Control 36.8", "method": "2. Effects on the Retina From the Eye Treated with Kainic Acid\nIt has been reported that when kainic acid, that is a neurotoxin, is injected into the hyaloid body, the inner plexiform layer becomes thinner because of synaptic collapse caused by cell death of amacrine cell or the number of the cells contained in the layer of gangliocyte decreases because of apoptosis happening to those cells (Neurochem. Int., 31, 251-260 (1997)).\nThen, according to the method described in this reference, the effects of the compound on the retinal disturbance induced by injecting kainic acid into the hyaloid body were studied.\nTo a male Sprague—Dawley rat (180-250 g) under anesthesia with pentobarbital, a solution of kainic acid in polyethylene glycol 660 hydroxystearate (1 mmol/L) was injected into the hyaloid bodies in both of the eyes in the amount of 5 μl under observation with a stereoscopic microscopy. […]. These sections were stained with hematoxylin—eosin and photographs were taken for the sections in which the retinal part at the distance of approximately 1 mm from the optic disc to either direction, left or right, is included to measure the thickness of the inner plexiform layer and the number of the cells contained in the layer of gangliocyte.\nThe compound was dissolved into polyethylene glycol 660 hydroxystearate and then injected into the hyaloid bodies two days before, at the same time as and one day after the kainic acid treatment in the volume of 5 μl each."}}}
{"molecule": "CCSCc1ccc2c(c1)c1c3c(c4c5cc(CSCC)ccc5n5c4c1n2[C@H]1C[C@](O)(C(=O)OC)[C@]5(C)O1)CNC3=O", "note": "[Compound A]", "values": [{"measurement": "Number of the cells in the layer of gangliocyte recovered to the level of that for Normal Group (1)", "setting": "[1]; 3 μg injected, ischemia—reperfusion treatment", "result": 70.9, "unit": "%"}, {"measurement": "Number of the cells in the layer of gangliocyte", "setting": "[1]; 3 μg/eye injected into the hyaloid body two days before 60 min ischemia, 7 days after reperfusion, Normal Group 38.8, Control Group 20.5", "result": 27.5, "unit": "cells/mm"}, {"measurement": "Protective effect on neurocyte disturbance of the retina caused by the ischemia—reperfusion treatment", "setting": "[1]; conclusion in words", "result": "superior protective effect"}, {"measurement": "Number of the cells in the layer of gangliocyte recovered to the level of that for Normal group (2)", "setting": "[2]; 3 μg injected, kainic acid treatment", "result": 80.7, "unit": "%"}, {"measurement": "Thickness of the inner plexiform layer", "setting": "[2]; 3 μg/eye", "result": 28.8, "unit": "μm"}, {"measurement": "Number of the cells in the layer of gangliocyte", "setting": "[2]; 3 μg/eye, kainic acid treatment", "result": 51.8, "unit": "cells/mm"}, {"measurement": "Thickness of the inner plexiform layer", "setting": "[2]; 30 μg/eye [sic]", "result": 23.8, "unit": "μm"}, {"measurement": "Number of the cells in the layer of gangliocyte", "setting": "[2]; 30 μg/eye [sic], kainic acid treatment", "result": 42.3, "unit": "cells/mm"}, {"measurement": "Protective effect against neurocyte disturbance of the retina caused by the kainic acid treatment", "setting": "[2]; conclusion in words", "result": "superior protective effect"}]}
